Laboratory results reported in patent US20080070960A1, “Novel 3-Aryl-1,2-Benzisoxazole Derivatives and Use Thereof as Medicinal Products Against Cancer” (AVENTIS PHARMA S.A., priority 2005, published 2008).
pIC50: −log10 of the molar value.

Molecular target: Hsp82 (Saccharomyces cerevisiae, UniProt P02829)
Test: Hsp82 ATPase activity inhibition (malachite green inorganic phosphate method, or PK/LDH coupled method)
Type: biochemical
Conditions: not given
Procedure: The inorganic phosphate released during the hydrolysis of ATP by the ATPase activity of Hsp82 is quantified by the malachite green method. In the presence of this reagent, formation of the inorganic phosphate-molybdate-malachite green complex occurs, which complex absorbs at a wavelength of 620 nm.
The products to be evaluated are incubated in a reaction volume of 30 μl, in the presence of 1 μM Hsp82 and of 250 μM of substrate (ATP) in a buffer composed of 50 mM Hepes-NaOH (pH 7.5), 1 mM DTT, 5 mM MgCl2 and 50 mM KCl at 37° C. for 60 min. In parallel, a range of inorganic phosphate of between 1 and 40 μM is prepared in the same buffer. The ATPase activity is subsequently visualized by the addition of 60 μl of the biomol green reagent (Tebu). After incubation at ambient temperature for 20 min, the absorbance of the various wells is measured using a microplate reader at 620 nm. The concentration of inorganic phosphate of each sample is then calculated from the standard curve. The ATPase activity of Hsp82 is expressed as concentration of inorganic phosphate produced in 60 min. The effect of the various products tested is expressed as percentage inhibition of the ATPase activity.
The formation of ADP due to the ATPase activity of Hsp82 was used to develop another method for evaluating the enzymatic activity of this enzyme by application of an enzymatic coupling system involving pyruvate kinase (PK) and lactate dehydrogensase (LDH). In this kinetic-type spectrophotometric method, the PK catalyses the formation of ATP and of pyruvate from phosphoenol pyruvate (PEP) and from the ADP produced by Hsp82. The pyruvate formed, which is a substrate for LDH, is subsequently converted into lactate in the presence of NADH. In this case, the decrease in NADH concentration, measured by the decrease in absorbance at the wavelength of 340 nm, is proportional to the concentration of ADP produced by Hsp82.
The products tested are incubated in a reaction volume of 100 μl of buffer composed of 100 mM Hepes-NaOH (pH 7.5), 5 mM MgCl2, 1 mM DTT, 150 mM KCl, 0.3 mM NADH, 2.5 mM PEP and 250 μM ATP. This mixture is preincubated at 37° C. for 30 min before the addition of 3.77 units of LDH and 3.77 units of PK. The reaction is initiated by the addition of the product to be evaluated, at varying concentrations, and of Hsp82, at a concentration of 1 μM. The enzymatic activity of Hsp82 is then measured, continuously, in a microplate reader, at 37° C., at the wavelength of 340 nm. The initial rate of the reaction is obtained by measuring the slope of the tangent at the origin of the curve recorded. The enzymatic activity is expressed in μM of ADP formed per minute. The effect of the various products tested is expressed as percentage inhibition of the ATPase activity.

Hsp82, sequence (P02829 whole entry): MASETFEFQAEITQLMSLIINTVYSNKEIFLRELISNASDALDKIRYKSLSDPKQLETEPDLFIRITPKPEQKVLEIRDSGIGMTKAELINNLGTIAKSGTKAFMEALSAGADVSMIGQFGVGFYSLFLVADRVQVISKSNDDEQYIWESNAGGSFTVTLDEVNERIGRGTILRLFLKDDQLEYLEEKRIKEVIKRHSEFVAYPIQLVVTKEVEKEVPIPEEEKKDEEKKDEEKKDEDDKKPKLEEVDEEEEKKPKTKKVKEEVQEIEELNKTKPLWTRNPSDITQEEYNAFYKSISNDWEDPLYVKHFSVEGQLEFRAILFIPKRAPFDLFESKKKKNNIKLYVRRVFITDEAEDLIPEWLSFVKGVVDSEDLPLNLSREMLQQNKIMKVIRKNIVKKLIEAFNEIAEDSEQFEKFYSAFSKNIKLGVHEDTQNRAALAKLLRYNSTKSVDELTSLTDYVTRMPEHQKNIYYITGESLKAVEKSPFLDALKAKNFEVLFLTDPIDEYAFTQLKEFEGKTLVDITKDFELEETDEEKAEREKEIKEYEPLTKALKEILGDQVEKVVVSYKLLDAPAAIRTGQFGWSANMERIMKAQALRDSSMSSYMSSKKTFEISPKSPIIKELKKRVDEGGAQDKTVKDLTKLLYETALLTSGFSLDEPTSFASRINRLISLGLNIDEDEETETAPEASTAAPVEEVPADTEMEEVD

Row | SMILES | pIC50
1 | Oc1ccc(-c2noc3ccccc23)c(O)c1 [Example 1, 4-(1,2-Benzisoxazol-3-yl)benzene-1,3-diol] | 5.00 to 6.00

Same assay, conditions: inhibition of ATPase activity of Hsp82; 1 μM Hsp82, 250 μM ATP, 37° C.; read-out: IC50

Row | pIC50 | SMILES
2 | 5.00 to 6.00 | Oc1cc(O)c(-c2noc3ccccc23)cc1Br [Example 2, 4-(1,2-Benzisoxazol-3-yl)-6-bromobenzene-1,3-diol]
3 | 5.00 to 6.00 | Oc1cc(O)c(-c2noc3ccccc23)cc1CNc1ccccc1 [Example 8, 4-(1,2-Benzisoxazol-3-yl)-6-(phenylamino)methylbenzene-1,3-diol]
4 | 5.00 to 6.00 | Oc1cc(O)c(-c2noc3ccccc23)cc1CCc1ccccc1 [Example 7, 4-(1,2-Benzisoxazol-3-yl)-6-(2-phenylethyl)benzene-1,3-diol]
5 | 4.00 to 5.00 | O=C(NCc1ccccc1)c1cc(-c2noc3ccccc23)c(O)cc1O [Example 4, N1-Phenylmethyl-5-(1,2-benzisoxazol-3-yl)-2,4-dihydroxybenzenecarboxamide]
6 | 4.00 to 5.00 | COc1cc(O)c(-c2noc3ccccc23)cc1CNc1ccc(C)c(C)c1 [Example 10, 2-(1,2-benzisoxazol-3-yl)-4-(3,4-dimethylphenylamino)methyl-5-methoxyphenol]
7 | > 6.00 | Cc1ccc(NCc2cc(-c3noc4ccccc34)c(O)cc2O)cc1C [Example 9, 4-(1,2-Benzisoxazol-3-yl)-6-(3,4-dimethylphenylamino)methylbenzene-1,3-diol]
8 | 5.00 to 6.00 | CCc1cc(-c2noc3ccccc23)c(O)cc1O [Example 6, 4-(1,2-Benzisoxazol-3-yl)-6-ethylbenzene-1,3-diol]
9 | 5.00 to 6.00 | Oc1cc(O)c(-c2noc3ccccc23)cc1CNc1ccc(Cl)c(Cl)c1 [Example 11, 4-(1,2-Benzisoxazol-3-yl)-6-(3,4-dichlorophenylamino)methylbenzene-1,3-diol]
10 | 5.00 to 6.00 | Oc1cc(O)c(-c2noc3ccccc23)cc1/C=N/c1ccc(Cl)c(Cl)c1 [Example 12, 4-(1,2-benzisoxazol-3-yl)-6-(3,4-dichlorophenyl)iminomethylbenzene-1,3-diol]
11 | 4.00 to 5.00 | O=C(Cc1ccccc1)c1cc(-c2noc3ccccc23)c(O)cc1O [Example 5]
12 | 4.00 to 5.00 | COC(=O)c1cc(-c2noc3ccccc23)c(O)cc1O [Example 3, 5-(1,2-Benzisoxazol-3-yl)-2,4-dihydroxybenzenecarboxylic acid methyl ester]
